{"source": "paper PMC11858653", "about": "“Design, Synthesis and Bioactive Evaluation of Topo I/c-MYC Dual Inhibitors to Inhibit Oral Cancer via Regulating the PI3K/AKT/NF-κB Signaling Pathway” (Molecules, 2025)", "key": {"[1]": {"tested_on": "MGC-803", "assay": "MTT antiproliferative assay, MGC-803", "type": "cell-based, human", "details": "Homo sapiens, MGC-803, 48 h, mean ± SD"}, "[2]": {"tested_on": "Cal27 cells", "assay": "MDC staining for autophagy", "type": "cell-based, human", "details": "24 h", "protocol": "In order to determine whether compound 7be induced autophagy, Cal27 cells were incubated with compound 7be at different concentrations for 24 h. MDC staining was used to detect any MDC-positive vesicles in cells of Cal27 cells by confocal microscope (Figure 13a)."}, "[3]": {"tested_on": "human oral cancer Cal27 xenograft tumor", "assay": "In vivo antitumor activity, Cal27 xenograft", "parameters": "species or system BALB/c nude mice", "details": "for relative tumor proliferation rate / tumor suppression rate / tumor growth inhibition (TGI): 21 days", "protocol": "Nude mouse organ and tumor tissues fixed with neutral formalin solution were paraffin-embedded according to the conventional processing method. Sections were cut to a thickness of approximately 5 μm, placed on glass slides and dewaxed in an oven at 60 °C, stained for H&E and immunohistochemistry and finally visualized with the Cytation 5 imaging system.\nFor this assay, 130 SPF-grade BALB/c mice (female, 4–6 weeks old, 18–20 g) were obtained from Chang Zhou Cavens Laboratory Animal Ltd. (Changzhou, China). The in vivo activity experiments were commissioned by Nanjing OG Pharmaceuticals, Co., Ltd. (Nanjing, China) All mice were housed in plastic cages, fed, and watered under standard conditions and air filtration (22 ± 2 °C; 12 h light/dark cycles). Under aseptic conditions, human oral cancer Cal27 cells were inoculated subcutaneously in the right axilla of BALB/c nude mice. When the tumors had grown to about 85 mm^3, 24 […] mice with good growth status and good homogeneity of tumor size were selected and randomly divided into the following four groups of six mice each: (1) the model group; (2) the low-dose group; (3) the high-dose group; and (4) the positive drug group. The drug dose in the low-dose group was 10 mg/kg, which was injected intraperitoneally once every other day, for the duration of 21 days of administration; the drug dose in the high-dose group was 20 mg/kg, which was injected intraperitoneally once every other day, for the duration of 21 days of administration; and the drug dose in the cisplatin group was 2 mg/kg, which was injected intraperitoneally once every other day, for the duration of 21 days of administration. Normal tissues of the heart, liver, spleen, lung and kidney and half of the tumor tissues were fixed with 4% formalin solution and embedded in paraffin for histological analysis; the other half of the tumor tissues were preserved in liquid nitrogen, and the supernatant was extracted after milling the tissues and detected by Western blot."}, "[4]": {"tested_on": "PI3K/AKT/NF-κB pathway", "assay": "Western blot of PI3K/AKT/NF-κB signaling pathway in Cal27 cells", "type": "cell-based, human", "details": "Cal27, 24 h", "protocol": "After Cal27 cells had been treated with the desired concentration of each drug for 24 h, the cells were collected and the total protein was extracted. The cells were then separated on a gel of appropriate concentration and transferred to a PVDF membrane. After blocking with milk, the membrane was incubated with primary antibody at 4 °C overnight. Subsequently, the membrane was incubated with horseradish peroxidase-coupled secondary antibody for 2 h. Finally, the protein bands were used to detect the immunoreactive signal using an enhanced chemiluminescence kit."}, "[5]": {"tested_on": "Cal27 cells", "assay": "Annexin V-FITC/PI apoptosis assay", "type": "cell-based, human", "details": "Cal27, 24 h, increased from 5.88%; treated with 1, 2, 3 and 4 μM", "protocol": "Cal27 cells were treated with compound 7be for 24 h. Tumor cells were then digested and collected. The resulting cells were incubated with Annexin V/PI light-avoidance staining for 0.5 h. Finally, different stages of apoptosis populations of Cal27 cells were immediately analyzed by flow cytometry."}, "[6]": {"tested_on": "NCI-H460", "assay": "MTT antiproliferative assay, NCI-H460", "type": "cell-based, human", "details": "Homo sapiens, NCI-H460, 48 h, mean ± SD"}, "[7]": {"tested_on": "Cal27", "assay": "MTT antiproliferative assay, Cal27", "type": "cell-based, human", "details": "Homo sapiens, CAL-27, 48 h, mean ± SD"}, "[8]": {"tested_on": "Cal27 cells", "assay": "Wound healing assay", "type": "cell-based, human", "details": "1-4 μM, 24 h", "protocol": "Cal27 cells in the logarithmic growth phase were inoculated into 6-well plates and cultured until the cells fused into a monolayer. A linear wound was then formed by scratching vertically with a 200 μL sterilized gun tip. The cells were washed 3 times with PBS to remove scraped off cells, and each well was incubated by adding medium. The initial scratched area was recorded with a microscope. Then different concentrations of the compounds to be tested were added, and the area of the scratches was recorded by microscopy 24 h later."}, "[9]": {"tested_on": "SV-HUC-1", "assay": "MTT assay, normal cell line SV-HUC-1", "type": "cell-based", "details": "SV-HUC1, 48 h, mean ± SD"}, "[10]": {"tested_on": "Cal27 cells", "assay": "Cell cycle analysis by flow cytometry", "type": "cell-based, human", "details": "Cal27, 4 μM, 24 h", "protocol": "Cal27 cells were treated with compound 7be for 24 h. Next, Cal27 cells were collected and suspended in ice ethanol at 4 °C for at least 24 h. Subsequently, Cal27 cells were incubated in RNase A and PI staining solution at 37 °C, protected from light, for 0.5 h. Finally, cells were detected by flow cytometry."}, "[11]": {"details": "10 mg/kg i.p. once every other day"}, "[12]": {"details": "20 mg/kg i.p. once every other day"}}, "note": "Values joined by “and” are separate entries in the source; they are usually repeats but may differ in a detail not shown here. Equal values may be shown once."}
{"compound": "Cc1cc(C)c2c(n1)S(=O)(=O)c1c-2nc(NCCN2CCCCC2)c2ccccc12", "note": "[7be, 7,9-Dimethyl-5-((2-(piperidin-1-yl)ethyl)amino) pyrido[3′,2′:4,5]thieno[3,2-c]isoquinoline 11,11-dioxide]", "values": [{"measurement": "IC50", "setting": "[1]", "value": "1690 ± 240", "unit": "nM"}, {"measurement": "MDC staining fluorescence", "setting": "[2]; Cal27, high concentrations (3 μM and 4 μM)", "value": "significant green fluorescence"}, {"measurement": "MDC staining fluorescence", "setting": "[2]; Cal27, low concentrations (1 μM and 2 μM)", "value": "weak green fluorescence"}, {"measurement": "relative tumor proliferation rate", "setting": "[3]; [11]", "value": 52.0, "unit": "%"}, {"measurement": "tumor suppression rate / tumor growth inhibition (TGI)", "setting": "[3]; [11]", "value": "48.53% and 48.5%"}, {"measurement": "relative tumor proliferation rate", "setting": "[3]; [12]", "value": 34.1, "unit": "%"}, {"measurement": "tumor suppression rate / tumor growth inhibition (TGI)", "setting": "[3]; [12]", "value": "64.7% and 64.73%"}, {"measurement": "expressions of p62, COX-2 and Bcl-2 in tumor tissue", "setting": "[3]; 20 mg/kg, Western blot of tumor tissue", "value": "decreased"}, {"measurement": "percentage of Ki67-positive cells in tumor tissue", "setting": "[3]; Ki67 immunostaining", "value": "decreased"}, {"measurement": "expression and phosphorylation levels of NF-κB", "setting": "[4]", "value": "decrease"}, {"measurement": "expression levels of PI3K", "setting": "[4]", "value": "slightly increased"}, {"measurement": "phosphorylation levels of PI3K and AKT", "setting": "[4]", "value": "significantly repressed"}, {"measurement": "number of apoptotic cells (early and late apoptotic cells)", "setting": "[5]", "value": 32.8, "unit": "%"}, {"measurement": "IC50", "setting": "[6]", "value": "2920 ± 560", "unit": "nM"}, {"measurement": "IC50", "setting": "[7]", "value": "1120 ± 220", "unit": "nM"}, {"measurement": "migration of Cal27 cells (in words)", "setting": "[8]", "value": "effectively inhibit migration"}, {"measurement": "IC50", "setting": "[9]", "value": "5180 ± 1770", "unit": "nM"}, {"measurement": "cells in S", "setting": "[10]", "value": 54.06, "unit": "%"}]}
